Assay results published in PMC4965013, “Open Source Drug Discovery with the Malaria Box Compound Collection for Neglected Diseases and Beyond” (PLoS Pathogens, 2016).

What was measured:
[1] = test system: P. falciparum; test: EC50 listed in S2 Table Metabolomics (used to set the concentration tested); type: cell-based; details: Plasmodium falciparum; EC50 used for Factor_XEC50 in metabolomics; read-out: EC50_nM
[2] = test system: P. falciparum 3D7 trophozoites; test: Metabolomic fingerprint profiling LC-MS; type: cell-based, Plasmodium falciparum; design: UDP-D-glucose / ADP-D-glucose: unit not given here; details: for Acetyllysine / N-acetyl-L-ornithine / N-carbamoyl-L-aspartate / NADPH / dAMP / dCMP / dTDP / dTMP / dTTP / dihydroorotate / orotate / DLH / DLS/SDL/SID / PD / PEE / PVNF / 3-phosphoglycerate / ADP-D-glucose / ATP / CDP / D-sedoheptulose-1/7-phosphate / FAD / GMP / NAD+ / NADP+ / Octoluse Bisphosphate / Pyroglutamic acid / UDP-D-glucose / UDP-D-glucuronate / UDP-N-acetyl-glucosamine / UDP / UMP / UTP / a-ketoglutarate / citrate/isocitrate / cytidine / dATP / dGMP/AMP / fumarate / glucose-1/6-phosphate / glycerate / guanine / guanosine / hypoxanthine / indole / inosine / nicotinate / ornithine / phosphoenolpyruvate / pyruvate / ribose-phosphate / sarcosine/alanine / sn-glycerol-3-phosphate / succinate/methylmalonic acid / uridine / xanthosine: S2 Table Metabolomics; for Acetyllysine: metabolite Acetyllysine; for N-acetyl-L-ornithine: metabolite N-acetyl-L-ornithine; for N-carbamoyl-L-aspartate: metabolite N-carbamoyl-L-aspartate; for NADPH: metabolite NADPH; for dAMP: metabolite dAMP; for dCMP: metabolite dCMP; for dTDP: metabolite dTDP; for dTMP: metabolite dTMP; for dTTP: metabolite dTTP; for dihydroorotate: metabolite dihydroorotate; for orotate: metabolite orotate; for DLH: peptide DLH; for DLS/SDL/SID: peptide DLS/SDL/SID; for PD: peptide PD; for PEE: peptide PEE; for PVNF: peptide PVNF; for 3-phosphoglycerate: metabolite 3-phosphoglycerate; for ADP-D-glucose: metabolite ADP-D-glucose; for ATP: metabolite ATP; for CDP: metabolite CDP; for CDP / D-sedoheptulose-1/7-phosphate / GMP / Octoluse Bisphosphate / UDP / UMP / UTP / citrate/isocitrate / dGMP/AMP / fumarate / glucose-1/6-phosphate / glycerate / guanine / guanosine / inosine / pyruvate / sarcosine/alanine / succinate/methylmalonic acid / uridine / xanthosine: change in metabolite level after compound treatment; for D-sedoheptulose-1/7-phosphate: metabolite D-sedoheptulose-1/7-phosphate; for FAD: metabolite FAD; for GMP: metabolite GMP; for NAD+: metabolite NAD+; for NADP+: metabolite NADP+; for Octoluse Bisphosphate: metabolite Octoluse Bisphosphate; for Pyroglutamic acid: metabolite Pyroglutamic acid; for UDP-D-glucose: metabolite UDP-D-glucose; for UDP-D-glucuronate: metabolite UDP-D-glucuronate; for UDP-N-acetyl-glucosamine: metabolite UDP-N-acetyl-glucosamine; for UDP: metabolite UDP; for UMP: metabolite UMP; for UTP: metabolite UTP; for a-ketoglutarate: metabolite a-ketoglutarate; for citrate/isocitrate: metabolite citrate/isocitrate; for cytidine: metabolite cytidine; for dATP: metabolite dATP; for dGMP/AMP: metabolite dGMP/AMP; for fumarate: metabolite fumarate; for glucose-1/6-phosphate: metabolite glucose-1/6-phosphate; for glycerate: metabolite glycerate; for guanine: metabolite guanine; for guanosine: metabolite guanosine; for hypoxanthine: metabolite hypoxanthine; for indole: metabolite indole; for inosine: metabolite inosine; for 2_3-Diphosphoglyceric acid / 4-phosphopantothenate / 6-phospho-D-gluconate / FMN / IMP / Pyrophosphate / Sedoheptoluse bisphosphate / cyclic-AMP / glutathione disulfide / lactate / myo-inositol: metabolite level change after treatment; for nicotinate: metabolite nicotinate; for ornithine: metabolite ornithine; for phosphoenolpyruvate: metabolite phosphoenolpyruvate; for pyruvate: metabolite pyruvate; for ribose-phosphate: metabolite ribose-phosphate; for sarcosine/alanine: metabolite sarcosine/alanine; for sn-glycerol-3-phosphate: metabolite sn-glycerol-3-phosphate; for succinate/methylmalonic acid: metabolite succinate/methylmalonic acid; for uridine: metabolite uridine; for xanthosine: metabolite xanthosine

`Cc1cc(NC(=O)C2c3ccccc3C(=O)N(CC(C)C)C2c2cccs2)no1` (stereo not shown) [MMV006429] showed an EC50 [1] of 32.8 nM, an Acetyllysine [2] of -4.876 and a N-acetyl-L-ornithine [2] of -3.5354. The N-carbamoyl-L-aspartate [2] was -2.585, the NADPH [2] was 1.978 and the dAMP [2] was 2.292. It also gave a dCMP [2] of 1.167, a dTDP [2] of 1.627 and a dTMP [2] of 3.344. It also gave a dTTP [2] of 1.446, a dihydroorotate [2] of -3.6651 and an orotate [2] of -0.181. For the same compound, the DLH [2] was -5.907, the DLS/SDL/SID [2] was -4.536 and the PD [2] was -2.845. For the same compound, the PEE [2] was -3.543, the PVNF [2] was -6.513 and the 3-phosphoglycerate [2] was 0.34. For the same compound, the ADP-D-glucose [2] was -0.1376, the ATP [2] was -1.344 and the CDP [2] was -0.4641. The D-sedoheptulose-1/7-phosphate [2] was -1.187, the FAD [2] was -1.625 and the GMP [2] was -1.884. For the same compound, the “NAD+” value [2] was -0.4933, the “NADP+” value [2] was -0.001455 and the “Octoluse Bisphosphate” value [2] was -2.069. It also gave a Pyroglutamic acid [2] of 0.2334, a UDP-D-glucose [2] of -0.07653 and a UDP-D-glucuronate [2] of -0.002659. For the same compound, the UDP-N-acetyl-glucosamine [2] was 0.06871, the UDP [2] was -1.216 and the UMP [2] was -0.6265. The UTP [2] was -1.299, the a-ketoglutarate [2] was 0.2879 and the citrate/isocitrate [2] was -0.09158. For the same compound, the cytidine [2] was 0.5285, the dATP [2] was 0.0138 and the dGMP/AMP [2] was -0.6616. The fumarate [2] was -0.1647, the glucose-1/6-phosphate [2] was -1.368 and the glycerate [2] was -0.8344. It also gave a guanine [2] of 0.5068, a guanosine [2] of 1.214 and a hypoxanthine [2] of 0.09881. For the same compound, the indole [2] was 0.1757, the inosine [2] was 0.2569 and the 2_3-Diphosphoglyceric acid [2] was -1.036. The 4-phosphopantothenate [2] was -0.6242, the 6-phospho-D-gluconate [2] was -0.2953 and the FMN [2] was -0.07748. It also gave an IMP [2] of -0.08419, a Pyrophosphate [2] of -1.06 and a Sedoheptoluse bisphosphate [2] of -0.9732. It also gave a cyclic-AMP [2] of -0.7986, a glutathione disulfide [2] of -0.4517 and a lactate [2] of -0.7779. The myo-inositol [2] was -1.114, the nicotinate [2] was 0.9425 and the ornithine [2] was -0.1056. The phosphoenolpyruvate [2] was 0.447, the pyruvate [2] was -2.0102 and the ribose-phosphate [2] was -0.6145. It also gave a sarcosine/alanine [2] of -1.58, a sn-glycerol-3-phosphate [2] of 1.267 and a succinate/methylmalonic acid [2] of 0.2625. The uridine [2] was 1.463 and the xanthosine [2] was -1.351.
With `Cc1ccc(N2C3c4ccccc4N(S(=O)(=O)c4ccc(C)cc4)C2c2ccccc2N3S(=O)(=O)c2ccc(C)cc2)cc1` [MMV007160] the EC50 [1] was 24.8 nM, the Acetyllysine [2] was 0.3548 and the N-acetyl-L-ornithine [2] was 0.3325. For the same compound, the N-carbamoyl-L-aspartate [2] was 1.35, the NADPH [2] was 0.1135 and the dAMP [2] was 0.01944. For the same compound, the dCMP [2] was 0.09265, the dTDP [2] was 0.2488 and the dTMP [2] was 0.1305. It also gave a dTTP [2] of 0.2593, a dihydroorotate [2] of 1.082 and an orotate [2] of 0.8469. The DLH [2] was 0.1334, the DLS/SDL/SID [2] was 0.2278 and the PD [2] was -0.1641. For the same compound, the PEE [2] was -0.1118, the PVNF [2] was 0.2167 and the 3-phosphoglycerate [2] was 0.1652. The ADP-D-glucose [2] was -0.01319, the ATP [2] was 0.3343 and the CDP [2] was 0.1565. The D-sedoheptulose-1/7-phosphate [2] was 0.1973, the FAD [2] was -0.002001 and the GMP [2] was 0.2649. The “NAD+” value [2] was 0, the “NADP+” value [2] was 0.07922 and the “Octoluse Bisphosphate” value [2] was 0.295. For the same compound, the Pyroglutamic acid [2] was 0.3777, the UDP-D-glucose [2] was 0.05012 and the UDP-D-glucuronate [2] was 0.1524. The UDP-N-acetyl-glucosamine [2] was -0.001304, the UDP [2] was 0.1082 and the UMP [2] was 0.008735. The UTP [2] was 0.1487, the a-ketoglutarate [2] was 0.5892 and the citrate/isocitrate [2] was 0.4078. For the same compound, the cytidine [2] was 0.08232, the dATP [2] was 0.1879 and the dGMP/AMP [2] was 0.0905. It also gave a fumarate [2] of 0.3202, a glucose-1/6-phosphate [2] of 0.8192 and a glycerate [2] of 0.7953. For the same compound, the guanine [2] was 0.3293, the guanosine [2] was 0.8873 and the hypoxanthine [2] was 0.7164. The indole [2] was 0.6321, the inosine [2] was 0.395 and the 2_3-Diphosphoglyceric acid [2] was 0.1996. For the same compound, the 4-phosphopantothenate [2] was 0.1099, the 6-phospho-D-gluconate [2] was 0.1949 and the FMN [2] was 0.06109. The IMP [2] was -0.03231, the Pyrophosphate [2] was 0.1406 and the Sedoheptoluse bisphosphate [2] was 0.1591. The cyclic-AMP [2] was 0.1479, the glutathione disulfide [2] was 0.15 and the lactate [2] was 0.5915. It also gave a myo-inositol [2] of 0.754, a nicotinate [2] of 0.5248 and an ornithine [2] of 0.05899. It also gave a phosphoenolpyruvate [2] of 0.1975, a pyruvate [2] of -0.02541 and a ribose-phosphate [2] of -0.3937. The sarcosine/alanine [2] was 0.2516, the sn-glycerol-3-phosphate [2] was -0.6224 and the succinate/methylmalonic acid [2] was 0.03261. For the same compound, the uridine [2] was 0.5939 and the xanthosine [2] was 0.5985.
